The subject of one data set is RENCA cells. As to conditions: cited from earlier work.
Data set [1] has as its system human PBEF. As to conditions: as reported in Ye et al. 2005; cited from earlier work.
Data set [2] relates to human PBEF. Put plainly: In vitro PBEF silencing with siRNAs. It counts as cell-based. From the text:
In vitro human PBEF stealth siRNAs were designed based on the human PBEF cDNA reference sequence (NM_005746.1) using the BLOCK-iTi RNAi Designer (Invitrogen, Carlsbad, Calif.). The siRNA sequence 1 (as reported in Ye et al. 2005 MVR w/@75% silencing) was custom synthesized from Invitrogen (cat#10620312_40993403, NM_005746); (5′-[…]-3′ SEQ ID NO:4) and scrambled controls (cat#10620312_40993404).
Alternatively, small interfering RNA (siRNA) targeting human PBEF1 (NM_005746) was purchased as 4 ON-TARGETplus SMARTpool siRNA duplexes (catalog#L-004581-00) from Dharmacon (Lafayette, Colo.).

For data set [3], the system named is rat peritoneal neutrophils. The data set is described as follows: Transmigration and chemotaxis assay (Transwell). It counts as cell-based. As to conditions: rhPBEF (10 ng/ul) or casein in lower chamber, up to 4 hours. The procedure:
Chemotaxis of rat peritoneal neutrophils (calcein-AM) across 3 μm polycarbonate filters was assessed in response to recombinant human PBEF/visfatin (rhPBEF, PeproTech, Rocky Hill, N.J.), or casein (positive control). (See Supplemental Methods for additional details).
Neutrophils were collected from retired breeder male Harlan-Sprague Dawley rats by intraperitoneal injection of 2.5% casein (5 ml). The resulting peritoneal fluid was recovered by PBS peritoneal lavage after 18 hr, centrifuged and examined for total cell counts and cell differentiation. For chemotaxis assays, leukocytes were exposed to calcein-AM in the presence of plurionic acid for 1 hr at room temperature. The temperature was then elevated to 37° C. for 30 min to cleave the calcein AM thereby reducing the rate of calcein diffusion out of the cells. […] The receiving wells were assessed serially in a fluorescent plate reader with absorption at 494 nm and emission measured at 517 nm. Fluorescence was recorded at 5, 10, 15, 30 min and each subsequent 30 min period for up to 4 hr. Aliquots of known numbers of neutrophils were counted in separate wells at each time point to account for any quenching of the fluorescence over time.

This is an account of results in US9409983B2, “Methods and compositions involving PBEF inhibitors for lung inflammation conditions and diseases” (The Board of Trustess of the University of Illinois, priority 2009, dated 2016).

A value given as a limit tells only on which side of the number the result lay.

Turning to `O=C(/C=C/c1cccnc1)NCCCCC1CCN(C(=O)c2ccccc2)CC1` [FK-866], the “toxicity compared with TNP-470 treatment” value in the data set with RENCA cells (doses of up to 6 mg/kg FK-866, TNP 470 30 mg/kg subcutaneously every other day) is recorded as “less toxic than treatment with TNP-470”. Also, the “doses with significant antitumor efficacy” value with RENCA cells (oral, twice daily, days 14 to 19 after tumor cell inoculation) was not below 10 mg/kg.

For the molecule “Invitrogen siRNA: human PBEF stealth siRNA, single sequence, custom synthesized from Invitrogen; 5′-CCACCCAACACAAGCAAAGUUUAUU-3′ SEQ ID NO:4 (Stealth siRNA from Invitrogen, modification pattern not given here)”, in the data set with human PBEF [1], the PBEF silencing was 75%. For the same molecule, in the data set on human PBEF [2], the “downregulating PBEF protein expression” value is on record as “effective”.

In the case of casein [reference compound], the “PMN migration across Transwell filters” value in data set [3] is listed as “significant at all time points beginning at 30 minutes”.
